# Read-outs that look alike come from different tables or passages of the source.
# Legend:
# Format in all cases: in vivo
# Shattercane (SHCA) = system: Shattercane (SHCA)
# Corn = assay: Multi-crop greenhouse test, soil-applied (Examples 65, 66; Tables 64, 65); parameters: inhibition: dose or concentration left out as unconfirmed; conditions: for inhibition / inhibition at 18 g/ha / inhibition at 70 g/ha / inhibition at 280 g/ha: Zea mays; for inhibition at 18 g/ha: Herb. No. 1 0.018 Kg/Ha alone; for inhibition at 70 g/ha: Herb. No. 1 0.07 Kg/Ha alone; for inhibition at 280 g/ha: Herb. No. 1 0.28 Kg/Ha alone
# In short: (§1)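 Dupo silt loam pans, seeds 1.3 cm deep; safener (acetone) + COUNTER 15G granules mixed into cover soil; subirrigated. MON-12000 run: herbicide POE day 6, light overhead irrigation days 4–7, injury scored 10 d later. XRD-498 run: all three components applied together to covers. Mean of 2 reps.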
# Giant foxtail (GIFT) = assay: as above; parameters: inhibition: dose or concentration left out as unconfirmed; conditions: for inhibition / inhibition at 18 g/ha / inhibition at 70 g/ha / inhibition at 280 g/ha: Setaria faberi; for inhibition at 18 g/ha: Herb. No. 1 0.018 Kg/Ha alone; for inhibition at 70 g/ha: Herb. No. 1 0.07 Kg/Ha alone; for inhibition at 280 g/ha: Herb. No. 1 0.28 Kg/Ha alone
# In short: as §1
# soybean (SOBE) = assay: as above; parameters: inhibition: dose or concentration left out as unconfirmed; conditions: for inhibition / inhibition at 18 g/ha / inhibition at 70 g/ha / inhibition at 280 g/ha: Glycine max; for inhibition at 18 g/ha: Herb. No. 1 0.018 Kg/Ha alone; for inhibition at 70 g/ha: Herb. No. 1 0.07 Kg/Ha alone; for inhibition at 280 g/ha: Herb. No. 1 0.28 Kg/Ha alone
# In short: as §1
# wheat (WHEA) = assay: as above; parameters: inhibition: dose or concentration left out as unconfirmed; conditions: for inhibition / inhibition at 18 g/ha / inhibition at 70 g/ha / inhibition at 280 g/ha: Triticum aestivum; for inhibition at 18 g/ha: Herb. No. 1 0.018 Kg/Ha alone; for inhibition at 70 g/ha: Herb. No. 1 0.07 Kg/Ha alone; for inhibition at 280 g/ha: Herb. No. 1 0.28 Kg/Ha alone
# In short: as §1
# [1] = Antidote 4.48 + Biocide No. 1 8.96 Kg/Ha PPI, Herb. No. 8 0.07, 5 DAP, before herbicide application
# [2] = Antidote 4.48 + Biocide No. 1 8.96 Kg/Ha PPI, Herb. No. 8 0.07 POE, 13 DAP
# [3] = Antidote 4.48 + Biocide No. 1 8.96 Kg/Ha PPI, Herbicide No. 7 0.28 POE, 13 days after planting
# [4] = Table 14: Herbicide No. 7 (ACCENT) 0.84 Kg/Ha POE + Biocide No. 2 8.96 Kg/Ha PPI + antidote 4.48 Kg/Ha PPI, 13 days after planting, 8 days after herbicide
# [5] = […], 13 days after planting, 8 days after herbicide
# [6] = […], observed 10 days after herbicide application
# [7] = Table 64, Herb. No. 1 0.018 Kg/Ha + Biocide No. 1 8.96 Kg/Ha + Antidote 4.48 Kg/Ha
# [8] = Table 64, Herb. No. 1 0.07 Kg/Ha + Biocide No. 1 8.96 Kg/Ha + Antidote 4.48 Kg/Ha
# [9] = Table 64, Herb. No. 1 0.28 Kg/Ha + Biocide No. 1 8.96 Kg/Ha + Antidote 4.48 Kg/Ha
# [10] = Table 65, Herb. No. 1 0.018 Kg/Ha + Biocide No. 1 8.96 Kg/Ha + Antidote 4.48 Kg/Ha
# [11] = Table 65, Herb. No. 1 0.07 Kg/Ha + Biocide No. 1 8.96 Kg/Ha + Antidote 4.48 Kg/Ha
# [12] = Table 65, Herb. No. 1 0.28 Kg/Ha + Biocide No. 1 8.96 Kg/Ha + Antidote 4.48 Kg/Ha
# [13] = Table 64, Herb. No. 1 0.018 Kg/Ha + Biocide No. 1 8.96 Kg/Ha
# [14] = Table 64, Herb. No. 1 0.07 Kg/Ha + Biocide No. 1 8.96 Kg/Ha
# [15] = Table 64, Herb. No. 1 0.28 Kg/Ha + Biocide No. 1 8.96 Kg/Ha
# [16] = Table 65, Herb. No. 1 0.018 Kg/Ha + Biocide No. 1 8.96 Kg/Ha
# [17] = Table 65, Herb. No. 1 0.07 Kg/Ha + Biocide No. 1 8.96 Kg/Ha
# [18] = Table 65, Herb. No. 1 0.28 Kg/Ha + Biocide No. 1 8.96 Kg/Ha
smiles,measurement,setting,value
CC1(C)OC(c2ccco2)CN1C(=O)C(Cl)Cl (centres unmarked) [compound 1],% Inhibition 5 DAP SHCA,Shattercane (SHCA); [1],0%
same,% Inhibition 13 DAP SHCA,Shattercane (SHCA); [2],80%
same,% Inhibition SHCA,Shattercane (SHCA); [3],75%
same,% Inhibition SHCA,Shattercane (SHCA); [4],70%
same,% Inhibition SHCA,Shattercane (SHCA); [5],90%
same,% Inhibition SHCA,"Shattercane (SHCA); […], observed 9 days later (Table 29)",70%
same,% Inhibition SHCA,"Shattercane (SHCA); […], observed 9 days later (Table 30)",30%
same,% Inhibition SHCA,Shattercane (SHCA); [6],55%
same,% Inhibition 5 DAP SHCA,Shattercane (SHCA); in vivo,20%
same,% Inhibition 13 DAP SHCA,Shattercane (SHCA); in vivo,75%
same,% Inhibition Corn,Corn; [7],5%
same,% Inhibition Corn,Corn; [8],15%
same,% Inhibition Corn,Corn; [9],10%
same,% Inhibition Corn,Corn; [10],0%
same,% Inhibition Corn,Corn; [11],5%
same,% Inhibition Corn,Corn; [12],20%
same,% Inhibition GIFT,Giant foxtail (GIFT); [7],50%
same,% Inhibition GIFT,Giant foxtail (GIFT); [8],70%
same,% Inhibition GIFT,Giant foxtail (GIFT); [9],85%
same,% Inhibition GIFT,Giant foxtail (GIFT); [10],40%
same,% Inhibition GIFT,Giant foxtail (GIFT); [11],80%
same,% Inhibition GIFT,Giant foxtail (GIFT); [12],95%
same,% Inhibition SOBE,soybean (SOBE); [7],35%
same,% Inhibition SOBE,soybean (SOBE); [8],75%
same,% Inhibition SOBE,soybean (SOBE); [9],70%
same,% Inhibition SOBE,soybean (SOBE); [10],0%
same,% Inhibition SOBE,soybean (SOBE); [11],0%
same,% Inhibition SOBE,soybean (SOBE); [12],5%
same,% Inhibition WHEA,wheat (WHEA); [7],0%
same,% Inhibition WHEA,wheat (WHEA); [8],0%
same,% Inhibition WHEA,wheat (WHEA); [9],0%
same,% Inhibition WHEA,wheat (WHEA); [10],10%
same,% Inhibition WHEA,wheat (WHEA); [11],25%
same,% Inhibition WHEA,wheat (WHEA); [12],70%
"COC(=O)c1c(Cl)nn(C)c1S(=O)(=O)NC(=O)Nc1nc(OC)cc(OC)n1 [Herbicide No. 1, N-[(4,6-dimethoxypyrimidin-2-yl)aminocarbonyl]-3-chloro-4-methoxycarbonyl-5-sulfonamide, reference compound]",inhibition,Corn; [13],0%
same,inhibition at 18 g/ha,Corn; Table 64,0%
same,inhibition,Corn; [14],10%
same,inhibition at 70 g/ha,Corn; Table 64,0%
same,inhibition,Corn; [15],60%
same,inhibition at 280 g/ha,Corn; Table 64,10%
same,inhibition,Corn; [16],0%
same,inhibition at 18 g/ha,Corn; Table 65,0%
same,inhibition,Corn; [17],0%
same,inhibition at 70 g/ha,Corn; Table 65,0%
same,inhibition,Corn; [18],75%
same,inhibition at 280 g/ha,Corn; Table 65,10%
same,inhibition,Giant foxtail (GIFT); [13],70%
same,inhibition at 18 g/ha,Giant foxtail (GIFT); Table 64,0%
same,inhibition,Giant foxtail (GIFT); [14],70%
same,inhibition at 70 g/ha,Giant foxtail (GIFT); Table 64,20%
same,inhibition,Giant foxtail (GIFT); [15],85%
same,inhibition at 280 g/ha,Giant foxtail (GIFT); Table 64,40%
same,inhibition,Giant foxtail (GIFT); [16],30%
same,inhibition at 18 g/ha,Giant foxtail (GIFT); Table 65,20%
same,inhibition,Giant foxtail (GIFT); [17],65%
same,inhibition at 70 g/ha,Giant foxtail (GIFT); Table 65,60%
same,inhibition,Giant foxtail (GIFT); [18],90%
same,inhibition at 280 g/ha,Giant foxtail (GIFT); Table 65,70%
same,inhibition,soybean (SOBE); [13],5%
same,inhibition at 18 g/ha,soybean (SOBE); Table 64,15%
same,inhibition,soybean (SOBE); [14],70%
same,inhibition at 70 g/ha,soybean (SOBE); Table 64,45%
same,inhibition,soybean (SOBE); [15],75%
same,inhibition at 280 g/ha,soybean (SOBE); Table 64,70%
same,inhibition,soybean (SOBE); [16],0%
same,inhibition at 18 g/ha,soybean (SOBE); Table 65,0%
same,inhibition,soybean (SOBE); [17],0%
same,inhibition at 70 g/ha,soybean (SOBE); Table 65,0%
same,inhibition,soybean (SOBE); [18],15%
same,inhibition at 280 g/ha,soybean (SOBE); Table 65,20%
same,inhibition,wheat (WHEA); [13],0%
same,inhibition at 18 g/ha,wheat (WHEA); Table 64,0%
same,inhibition,wheat (WHEA); [14],0%
same,inhibition at 70 g/ha,wheat (WHEA); Table 64,0%
same,inhibition,wheat (WHEA); [15],35%
same,inhibition at 280 g/ha,wheat (WHEA); Table 64,0%
same,inhibition,wheat (WHEA); [16],0%
same,inhibition at 18 g/ha,wheat (WHEA); Table 65,0%
same,inhibition,wheat (WHEA); [17],0%
same,inhibition at 70 g/ha,wheat (WHEA); Table 65,0%
same,inhibition,wheat (WHEA); [18],85%
same,inhibition at 280 g/ha,wheat (WHEA); Table 65,0%
COC(=O)COC(c1ccccc1)c1ccccc1 [compound 12],% Inhibition 5 DAP SHCA,Shattercane (SHCA); [1],0%
same,% Inhibition 13 DAP SHCA,Shattercane (SHCA); [2],80%
same,% Inhibition SHCA,Shattercane (SHCA); [3],75%
same,% Inhibition 13 DAP SHCA,"Shattercane (SHCA); Herb. […], 13 DAP, after herbicide application",85%
same,% Inhibition SHCA,Shattercane (SHCA); [4],75%
same,% Inhibition SHCA,Shattercane (SHCA); [5],90%
same,% Inhibition SHCA,"Shattercane (SHCA); […], observed 8 days later (Table 32)",80%
same,% Inhibition SHCA,"Shattercane (SHCA); […], observed 8 days later (Table 33)",40%
same,% Inhibition SHCA,Shattercane (SHCA); [6],60%
same,% Inhibition 5 DAP SHCA,Shattercane (SHCA); in vivo,15%
same,% Inhibition 13 DAP SHCA,Shattercane (SHCA); in vivo,75%
same,% Inhibition Corn,Corn; [7],0%
same,% Inhibition Corn,Corn; [8],10%
same,% Inhibition Corn,Corn; [9],10%
same,% Inhibition Corn,Corn; [10],0%
same,% Inhibition Corn,Corn; [11],0%
same,% Inhibition Corn,Corn; [12],20%
same,% Inhibition GIFT,Giant foxtail (GIFT); [7],30%
same,% Inhibition GIFT,Giant foxtail (GIFT); [8],70%
same,% Inhibition GIFT,Giant foxtail (GIFT); [9],75%
same,% Inhibition GIFT,Giant foxtail (GIFT); [10],25%
same,% Inhibition GIFT,Giant foxtail (GIFT); [11],80%
same,% Inhibition GIFT,Giant foxtail (GIFT); [12],85%
same,% Inhibition SOBE,soybean (SOBE); [7],5%
same,% Inhibition SOBE,soybean (SOBE); [8],70%
same,% Inhibition SOBE,soybean (SOBE); [9],80%
same,% Inhibition SOBE,soybean (SOBE); [10],0%
same,% Inhibition SOBE,soybean (SOBE); [11],0%
same,% Inhibition SOBE,soybean (SOBE); [12],15%
same,% Inhibition WHEA,wheat (WHEA); [7],0%
same,% Inhibition WHEA,wheat (WHEA); [8],0%
same,% Inhibition WHEA,wheat (WHEA); [9],0%
same,% Inhibition WHEA,wheat (WHEA); [10],0%
same,% Inhibition WHEA,wheat (WHEA); [11],0%
same,% Inhibition WHEA,wheat (WHEA); [12],20%
N#CCOc1ccc(Cl)c2cccnc12 [compound 33],% Inhibition 5 DAP SHCA,Shattercane (SHCA); [1],20%
same,% Inhibition 13 DAP SHCA,Shattercane (SHCA); [2],90%
same,% Inhibition SHCA,Shattercane (SHCA); [3],70%
same,% Inhibition SHCA,Shattercane (SHCA); [4],75%
same,% Inhibition SHCA,Shattercane (SHCA); [5],90%
same,% Inhibition SHCA,Shattercane (SHCA); [6],55%
same,% Inhibition 5 DAP SHCA,Shattercane (SHCA); in vivo,70%
same,% Inhibition 13 DAP SHCA,Shattercane (SHCA); in vivo,90%

# Source: EP0565593B1, “REDUCING PESTICIDAL INTERACTIONS IN CROPS” (priority 1990, dated 1992)
